# Data from patent US11440904B2, “Substituted pyrimidines, pharmaceutical compositions and therapeutic methods thereof” (priority 2017, dated 2022).
# Assays:
# [1] = target: FAK (Homo sapiens (Human), UniProt Q05397); assay: 33P ATP HotSpot kinase assay, FAK; settings: read-out: IC50 FAK, 10 μM ATP
# [2] = tested on: MDA-MB-231 cells; assay: Cancer cell growth inhibition, MDA-MB-231; assay type: cell-based; settings: Homo sapiens, 72 hr, cell viability
# Procedure: (§1) In order to test certain compounds of Compounds 1 to 24 for cancer cell growth inhibition, a leukemia cancer cell line EOL-1, and triple negative breast cancer cell line MDA-MB-231 was used.
# (§2) EOL-1 and MDA-MB-231 cells were cultured in a RPMI-1640 cell culture medium supplemented with 10% fetal bovine serum (FBS) and 1% penicillin/streptomycin (Gibco BRL).
# (§3) The cancer cell lines stored in a liquid nitrogen tank were each quickly thawed at 37° C. water bath, and centrifuged to remove the DMSO in the freezing medium. The resulting cell pellet was mixed with a culture medium, incubated in a culture flask at 37° C. under 5% CO2 for 2 to 3 days. The EOL-1 cells were sub-cultured by 1:5˜10 dilution in fresh culture medium. For MD-MB-231 cells, the culture medium was removed and the remaining cells were washed with PBS (Phosphate Buffered Saline) and trypsinized by trypsin-EDTA. The detached cells were sub-cultured by 1:5˜10 dilution in fresh culture medium.
# (§4) For the cell growth inhibition assay, the cells were seeded in 96-well cell culture plates at 5×10^4 cells/well for EOL-1 and 5×10^3 cells/well for MDA-MB-231 cells in 50 μL and incubated at 37° C. under 5% CO2 for 3 to 6 hr. before the compounds were added.
# (§5) Certain compounds of Compounds 1-24 were dissolved in dimethylsulfoxide (DMSO) to a concentration of 10 mM. The DMSO solution containing test compound was diluted with a culture medium to a final concentration of 600 μM, and then diluted 100 times to 6 μM as top dose followed by 1:3 serial dilutions, and then add 50 μL diluted compounds to the 50 μL cells, with a final top dose at 3 μM and the plate was incubated at 37° C. under 5% CO2 for 72 hr. The cell viability was determined by Cell Meter™ Fluorimetric Cell Cytotoxicity Assay Kit (AAT Bioquest) according to the manufacturer's instructions. Briefly, thaw and warm up the Assay Solution (Component A) to 37° C., and mix it thoroughly. Add 20 μL/well (96-well plate) of Assay Solution (Component A). Mix the reagents by shaking the plate gently for 30 seconds. Incubate the cells in a 37° C., 5% CO2 incubator for 1-24 hr., protected from light. Monitor the fluorescence intensity (bottom read) at Ex/Em=540/590 nm. Alternatively, read the O.D. at 570 nm (the reference wavelength should be 600 nm) to determine the cell viability in each well.
# [3] = target: ITK (Homo sapiens (Human), UniProt Q08881); assay: 33P ATP HotSpot kinase assay, ITK; assay type: biochemical; settings: 10 μM ATP
# Procedure: (§6) (See, e.g., Ma, et al, 2008 Expert Opin Drug Discov. 3(6): 607-621.)
# (§7) Each of Compound-1 to Compound-24 was measured for its inhibitory activity on TEC family kinases, BMX and ITK. The measurement was carried out in the same process as described above, BMX, ITK enzymes were used.
# [4] = tested on: EOL-1 cells; assay: Cancer cell growth inhibition, EOL-1; assay type: cell-based; settings: Homo sapiens, EOL1, 72 hr, cell viability
# Procedure: as §1, §2, §3, §4, §5
# [5] = target: BTK wt (Homo sapiens (Human), UniProt Q06187); assay: 33P ATP HotSpot kinase assay, BTK wt; assay type: biochemical; settings: 10 μM ATP
# Text: as §6
# [6] = target: BTK phosphorylation at tyrosine 223 (Homo sapiens (Human), UniProt Q06187); assay: Immunoblot analysis of phospho-BTK(Y223) in Ramos cells; assay type: cell-based; settings: 1 hr treatment, anti-IgM stimulation, western blot
# Procedure: Ramos cells were cultured in RPMI-1640 medium with 10% fetal bovine serum (FBS) and 1% penicillin/streptomycin (Gibco BRL). Before the assay, Ramos cells were counted and seeded at 1×10^6 cells/mL, cultured overnight in RPMI-1640 medium with 10% FBS, the cells were centrifuged at 950 rpm for 10 min., then 1˜2×10^6 cells were split into each tube in 300 μL medium. The cells were treated with certain compounds of Compound 1-24 at 0˜3 μM for 1 hr. in 37° C., then the cells were stimulated with 10 μg/mL of anti-IgM (BioLegend) for 5 min., followed by 3 min. spin at 2000 rpm. After aspirating the supernatant, 60 μL of RIPA lysis buffer (50 mM Tris-HCl, 1 mM EDTA, 1% NP-40, 0.5% sodium deoxycholate, and 0.1% SDS, pH 7.4, 150 mM NaCl, 1 mM Na3VO4) was added to the cell pellet to lyse the cells on ice for 30 min. After spin at 10,000 rpm for 5 min., 60 μL of the cell lysate was transferred to a fresh tube, and 20 μL of 4× LDS buffer was added to the tube. The samples were boiled on a 100° C. heat block for 10 min. 25 μL lysate was loaded on to SDS-PAGE gel (NuPAGE™ Novex™ 4-12% Bis-Tris Midi Protein Gels, cat. no. WG1402BOX, ThermoFisher) for western blotting analysis per the manufacturer's instructions. Antibodies used for immunoblot analysis include Btk and p-Btk(Y223) (cat. no. 3553 and 5082; Cell Signaling Technology, Beverly, Mass.). p-Btk(Y223) (cat. no. GTX61791; GeneTex, Inc., Irvine, Calif.). Membranes were detected using infrared fluorescence dye (IRDye® 800CW Donkey anti-Rabbit IgG (H+L), cat. no. P/N 925-32213; IRDye® 680RD Donkey anti-Mouse IgG (H+L), cat. no. P/N 925-68072 and scanned on a LiCor Odyssey scanner (LiCor Biosciences, Lincoln, Nebr.).
# [7] = tested on: ERK phosphorylation at T202/Y204; assay: Cell-based ERK1/2 (T202/Y204) phosphorylation ELISA in EOL-1 cells; settings: 3 hr or 15 hr treatment, read-out: EC50 phospho-ERK1/2 (T202/Y204)
# Procedure: EOL-1 cells were cultured in RPMI-1640 medium with 10% fetal bovine serum (FBS) and 1% penicillin/streptomycin (Gibco BRL). Before the assay, EOL-1 cells were counted and seeded at 1×10^6 cells/well in a 6-well plate, cultured overnight in RPMI-1640 medium with 10% FBS. The cells were treated with certain compounds of Compounds 1-24 at 0˜3 μM for 3 hr. or 15 hr. at 37° C., then the cells were harvested, followed by 5 min. spin at 2000 rpm. After aspirating the supernatant, the cells were washed with cold PBS, span again, then 100 μL of RIPA lysis buffer (50 mM Tris-HCl, 1 mM EDTA, 1% NP-40, 0.5% sodium deoxycholate, and 0.1% SDS, pH 7.4, 150 mM NaCl, 1 mM Na3VO4) was added to the cell pellet to lyse the cells on ice for 30 min. After spin at 12,000 rpm for 5 min., 90 μL of the cell lysate was transferred to a fresh tube.
# For an enzyme-linked immunosorbent assay (ELISA) assay, 10 μL of the lysate was used for p-ERK1/2 (T202/Y204) elisa assay. ELISA was done using the ERK 1/2 (pT202/Y204 +Total) ELISA Kit (Abcam, ab176660) according to the manufacturer's instructions. Specifically, add 50 μL of all samples or standards to appropriate wells. Add 50 μL of the Antibody Cocktail to each well. Seal the plate and incubate for 1 hr. at r.t. on a plate shaker set to 400 rpm. Wash each well with 3×350 μL 1× Wash Buffer PT. […] This is an endpoint reading.
# [8] = target: BMX (Homo sapiens (Human), UniProt P51813); assay: 33P ATP HotSpot kinase assay, BMX; assay type: biochemical; settings: 10 μM ATP
# Procedure: as §6, §7
# [9] = target: ERK1 kinase (Homo sapiens (Human), UniProt P27361); assay: 33P ATP HotSpot kinase assay, ERK1; assay type: biochemical; settings: 10 μM ATP
# Procedure: as §6
# Certain compounds of Compound-1 to Compound-24 were measured for its inhibitory activity on ERK1 kinase. The measurement was carried out in the same process as described above, ERK enzyme was used.
# [10] = target: EGFR wt (Homo sapiens (Human), UniProt P00533); assay: 33P ATP HotSpot kinase assay, EGFR wt; assay type: biochemical; settings: 10 μM ATP
# [11] = target: FAK phosphorylation at tyrosine 397 (Homo sapiens (Human), UniProt Q05397); assay: Cell-based FAK(Y397) phosphorylation ELISA in PC3 cells; settings: 1 hr treatment, read-out: EC50 phospho-FAK(Y397)
# Sequence of FAK phosphorylation at tyrosine 397 (Q05397 whole entry): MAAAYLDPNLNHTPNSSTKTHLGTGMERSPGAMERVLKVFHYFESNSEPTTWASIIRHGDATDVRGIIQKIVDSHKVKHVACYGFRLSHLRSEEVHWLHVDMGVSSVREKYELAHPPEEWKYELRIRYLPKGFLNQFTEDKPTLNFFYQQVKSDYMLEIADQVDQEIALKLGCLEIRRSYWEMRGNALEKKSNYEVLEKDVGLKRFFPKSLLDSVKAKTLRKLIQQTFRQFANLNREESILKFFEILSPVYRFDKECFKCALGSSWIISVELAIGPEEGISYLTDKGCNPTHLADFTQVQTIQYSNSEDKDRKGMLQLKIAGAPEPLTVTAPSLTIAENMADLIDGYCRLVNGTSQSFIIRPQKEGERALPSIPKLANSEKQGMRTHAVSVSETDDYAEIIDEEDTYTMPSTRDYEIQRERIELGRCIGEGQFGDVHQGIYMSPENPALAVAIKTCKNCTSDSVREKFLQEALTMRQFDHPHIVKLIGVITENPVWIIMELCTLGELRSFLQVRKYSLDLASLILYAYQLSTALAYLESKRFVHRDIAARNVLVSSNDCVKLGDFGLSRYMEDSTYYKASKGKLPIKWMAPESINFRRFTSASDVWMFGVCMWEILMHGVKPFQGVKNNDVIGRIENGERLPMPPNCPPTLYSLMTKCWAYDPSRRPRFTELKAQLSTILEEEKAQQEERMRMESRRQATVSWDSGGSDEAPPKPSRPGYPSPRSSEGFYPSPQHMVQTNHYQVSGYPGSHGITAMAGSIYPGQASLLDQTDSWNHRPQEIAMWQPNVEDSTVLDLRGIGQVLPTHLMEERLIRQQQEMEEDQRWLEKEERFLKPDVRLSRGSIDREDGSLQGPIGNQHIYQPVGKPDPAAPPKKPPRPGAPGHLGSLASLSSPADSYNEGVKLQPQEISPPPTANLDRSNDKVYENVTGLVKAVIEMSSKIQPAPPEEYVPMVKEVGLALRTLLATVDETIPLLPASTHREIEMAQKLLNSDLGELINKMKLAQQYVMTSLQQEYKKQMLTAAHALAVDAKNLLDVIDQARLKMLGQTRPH
# Sequence of BMX (P51813 whole entry): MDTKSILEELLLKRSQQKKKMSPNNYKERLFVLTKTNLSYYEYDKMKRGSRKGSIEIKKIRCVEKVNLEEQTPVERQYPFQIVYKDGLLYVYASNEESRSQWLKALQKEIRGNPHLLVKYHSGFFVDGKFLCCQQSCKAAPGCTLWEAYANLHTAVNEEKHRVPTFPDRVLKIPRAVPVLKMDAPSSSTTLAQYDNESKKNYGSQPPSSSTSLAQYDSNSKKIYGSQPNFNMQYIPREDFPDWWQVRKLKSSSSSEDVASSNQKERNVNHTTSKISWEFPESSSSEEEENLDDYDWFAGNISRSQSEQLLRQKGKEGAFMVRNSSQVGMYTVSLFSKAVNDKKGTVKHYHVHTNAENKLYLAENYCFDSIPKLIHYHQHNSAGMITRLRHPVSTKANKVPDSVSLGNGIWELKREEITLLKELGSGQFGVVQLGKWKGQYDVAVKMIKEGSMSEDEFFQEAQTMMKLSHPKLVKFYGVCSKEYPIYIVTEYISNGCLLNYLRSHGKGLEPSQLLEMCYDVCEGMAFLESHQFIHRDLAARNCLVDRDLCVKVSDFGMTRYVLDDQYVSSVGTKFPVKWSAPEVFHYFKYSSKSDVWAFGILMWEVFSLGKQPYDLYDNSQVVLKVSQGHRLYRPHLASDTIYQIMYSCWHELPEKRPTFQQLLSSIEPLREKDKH
# Sequence of EGFR wt (P00533 25-1210): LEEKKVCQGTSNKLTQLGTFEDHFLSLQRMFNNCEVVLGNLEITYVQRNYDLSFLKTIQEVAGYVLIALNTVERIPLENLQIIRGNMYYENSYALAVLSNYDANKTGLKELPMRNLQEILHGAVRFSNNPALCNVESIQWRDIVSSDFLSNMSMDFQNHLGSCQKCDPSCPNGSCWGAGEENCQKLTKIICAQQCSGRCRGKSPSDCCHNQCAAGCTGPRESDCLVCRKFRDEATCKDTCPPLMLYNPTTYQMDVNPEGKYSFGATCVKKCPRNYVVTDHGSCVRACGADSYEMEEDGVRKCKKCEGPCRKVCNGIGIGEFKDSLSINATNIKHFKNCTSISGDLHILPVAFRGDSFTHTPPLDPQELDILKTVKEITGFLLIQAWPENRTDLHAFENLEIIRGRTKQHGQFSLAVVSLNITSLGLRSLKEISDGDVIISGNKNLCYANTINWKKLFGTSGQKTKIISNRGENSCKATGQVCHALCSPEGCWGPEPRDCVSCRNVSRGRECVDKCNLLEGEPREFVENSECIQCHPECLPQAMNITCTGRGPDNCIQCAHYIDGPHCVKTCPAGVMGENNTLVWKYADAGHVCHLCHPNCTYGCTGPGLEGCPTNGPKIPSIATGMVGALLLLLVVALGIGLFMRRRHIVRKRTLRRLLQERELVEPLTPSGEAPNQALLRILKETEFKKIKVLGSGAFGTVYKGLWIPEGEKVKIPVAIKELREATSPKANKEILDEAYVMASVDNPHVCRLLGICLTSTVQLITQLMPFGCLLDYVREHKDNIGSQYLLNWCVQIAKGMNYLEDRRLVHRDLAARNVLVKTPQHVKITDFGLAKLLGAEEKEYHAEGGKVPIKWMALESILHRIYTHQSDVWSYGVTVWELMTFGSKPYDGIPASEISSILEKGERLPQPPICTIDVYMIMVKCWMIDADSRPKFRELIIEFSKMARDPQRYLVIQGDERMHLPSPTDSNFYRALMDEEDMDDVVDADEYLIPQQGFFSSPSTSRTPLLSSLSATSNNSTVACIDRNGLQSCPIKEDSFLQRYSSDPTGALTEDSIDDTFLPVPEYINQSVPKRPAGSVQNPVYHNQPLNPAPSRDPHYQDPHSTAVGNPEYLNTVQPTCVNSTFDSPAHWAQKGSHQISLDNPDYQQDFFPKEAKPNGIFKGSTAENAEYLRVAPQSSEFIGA
# Sequence of BTK wt (Q06187 whole entry): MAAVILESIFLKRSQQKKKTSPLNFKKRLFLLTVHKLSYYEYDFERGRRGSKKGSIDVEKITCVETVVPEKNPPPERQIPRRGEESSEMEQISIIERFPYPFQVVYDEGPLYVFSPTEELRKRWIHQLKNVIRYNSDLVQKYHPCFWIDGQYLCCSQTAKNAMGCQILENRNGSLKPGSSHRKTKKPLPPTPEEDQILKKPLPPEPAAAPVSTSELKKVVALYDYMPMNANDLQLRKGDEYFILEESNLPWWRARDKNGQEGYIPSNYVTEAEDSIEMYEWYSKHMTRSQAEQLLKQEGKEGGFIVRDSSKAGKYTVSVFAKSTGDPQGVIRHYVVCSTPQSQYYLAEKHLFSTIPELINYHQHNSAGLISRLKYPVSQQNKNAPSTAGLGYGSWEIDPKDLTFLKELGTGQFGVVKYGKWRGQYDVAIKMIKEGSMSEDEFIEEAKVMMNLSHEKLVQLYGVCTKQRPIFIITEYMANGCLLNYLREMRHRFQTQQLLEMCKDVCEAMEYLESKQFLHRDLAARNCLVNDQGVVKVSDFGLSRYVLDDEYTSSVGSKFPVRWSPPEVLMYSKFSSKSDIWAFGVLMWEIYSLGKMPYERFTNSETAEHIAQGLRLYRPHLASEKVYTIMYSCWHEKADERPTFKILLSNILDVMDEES
# Sequence of BTK phosphorylation at tyrosine 223 (Q06187 whole entry): as above
# Sequence of ITK (Q08881 whole entry): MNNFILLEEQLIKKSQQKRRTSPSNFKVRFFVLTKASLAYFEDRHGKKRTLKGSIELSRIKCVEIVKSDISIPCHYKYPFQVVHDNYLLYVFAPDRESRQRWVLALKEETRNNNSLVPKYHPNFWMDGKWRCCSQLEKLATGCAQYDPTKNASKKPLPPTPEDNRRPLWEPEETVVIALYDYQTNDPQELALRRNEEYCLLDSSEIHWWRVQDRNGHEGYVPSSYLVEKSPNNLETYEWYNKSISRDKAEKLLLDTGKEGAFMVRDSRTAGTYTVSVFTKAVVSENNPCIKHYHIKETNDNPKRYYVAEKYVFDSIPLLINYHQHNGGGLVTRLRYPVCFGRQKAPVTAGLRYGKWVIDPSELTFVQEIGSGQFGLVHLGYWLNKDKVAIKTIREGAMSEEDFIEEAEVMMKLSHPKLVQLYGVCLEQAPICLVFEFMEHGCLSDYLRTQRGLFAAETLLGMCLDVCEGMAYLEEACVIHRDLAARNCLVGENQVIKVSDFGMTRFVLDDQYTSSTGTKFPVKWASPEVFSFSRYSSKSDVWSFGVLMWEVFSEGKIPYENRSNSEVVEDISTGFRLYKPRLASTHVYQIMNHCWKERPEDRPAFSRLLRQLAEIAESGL
# Sequence of FAK (Q05397 whole entry): as the sequence (Q05397 whole entry) above
# Sequence of ERK1 kinase (P27361 whole entry): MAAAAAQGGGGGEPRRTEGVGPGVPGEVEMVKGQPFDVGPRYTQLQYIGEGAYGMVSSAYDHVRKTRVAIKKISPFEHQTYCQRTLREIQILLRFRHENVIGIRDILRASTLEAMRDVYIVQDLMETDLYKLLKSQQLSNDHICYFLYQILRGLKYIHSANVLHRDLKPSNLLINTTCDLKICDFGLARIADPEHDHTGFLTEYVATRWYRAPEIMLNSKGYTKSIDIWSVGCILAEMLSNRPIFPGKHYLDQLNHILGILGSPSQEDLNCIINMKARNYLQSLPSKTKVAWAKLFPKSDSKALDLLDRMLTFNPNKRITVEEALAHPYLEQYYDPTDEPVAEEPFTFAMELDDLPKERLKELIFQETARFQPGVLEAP
SMILES,IC50 [1] [nM],IC50 [2] [nM],IC50 [3] [nM],IC50 [4] [nM],IC50 [5] [nM],EC50 [6] [nM],EC50 [7] [nM],IC50 [8] [nM],IC50 [9] [nM],IC50 [10] [nM],EC50 [11] [nM]
"C=CC(=O)Nc1cccc(Nc2nc(Nc3ccc4c(c3)OCCOCCOCCO4)nc3[nH]cnc23)c1 [Compound-7, N-[3-[[2-(2,5,8,11-tetraoxabicyclo[10.4.0]hexadeca-1(12),13,15-trien-14-ylamino)-9H-purin-6-yl]amino]phenyl]prop-2-enamide]",274,> 3000,1.35,2500,0.65,< 100,,0.41,,208,
"C=CC(=O)N1CCC[C@@H](Nc2nc(Nc3ccc4c(c3)OCCOCCOCCO4)ncc2F)C1 [Compound-2, 1-[(3R)-3-[[5-fluoro-2-(2,5,8,11-tetraoxabicyclo[10.4.0]hexadeca-1(12),13,15-trien-14-ylamino)pyrimidin-4-yl]amino]-1-piperidyl]prop-2-en-1-one]",> 1000,> 3000,> 1000,2000,73.4,100 to 1000,,8.46,,> 1000,
"C=CC(=O)Nc1ccccc1Nc1nc(Nc2ccc3c(c2)OCCOCCOCCO3)ncc1F [Compound-10, N-[2-[[5-fluoro-2-(2,5,8,11-tetraoxabicyclo[10.4.0]hexadeca-1(12),13,15-trien-14-ylamino)pyrimidin-4-yl]amino]phenyl]prop-2-enamide]",> 100,,> 100,,< 100,100 to 1000,,> 100,,> 100,
"C=CC(=O)Nc1cccc(Nc2nc(Nc3ccc(OCCCOC4(CC)OCC(C)(C)CO4)cc3)ncc2F)c1 [Compound-5, N-[3-[[2-[4-[3-[(2-ethyl-5,5-dimethyl-1,3-dioxan-2yl)oxy]propoxy]anilino]-5-fluoro-pyrimidin-4-yl]amino]phenyl]prop-2-enamide]",> 100,3000,< 100,1900,< 100,< 100,,< 100,,> 100,
"C=CC(=O)N1CCC[C@@H](Nc2nc(Nc3ccc4c(c3)OCCOCCOCCO4)nc3[nH]cnc23)C1 [Compound-3, 1-[(3R)-3-[[2-(2,5,8,11-tetraoxabicyclo[10.4.0]hexadeca-1(12),13,15-trien-14-ylamino)-9H-purin-6-yl]amino]-1-piperidyl]prop-2-en-1-one]",1240,> 3000,39.6,> 3000,3.17,< 100,,1.69,,345,

# Molecules with a lower IC50 [1], results first:
IC50 [1] [nM],IC50 [2] [nM],IC50 [3] [nM],IC50 [4] [nM],IC50 [5] [nM],EC50 [6] [nM],EC50 [7] [nM],IC50 [8] [nM],IC50 [9] [nM],IC50 [10] [nM],EC50 [11] [nM],SMILES
24.6,> 3000,447,2400,4.36,100 to 1000,1000 to 3000,2.7,714,> 1000,,"CCC(=O)Nc1ccccc1Nc1nc(Nc2ccc3c(c2)OCCOCCOCCO3)nc2[nH]cnc12 [Compound-12, N-[2-[[2-(2,5,8,11-tetraoxabicyclo[10.4.0]hexadeca-1(12),13,15-trien-14-ylamino)-9H-purin-6-yl]amino]phenyl]propanamide]"
29.4,> 3000,,2250,> 1000,,,,,> 1000,100 to 1000,"CN(c1cnccc1CNc1nc(Nc2ccc3c(c2)OCCOCCOCCO3)nc2[nH]ccc12)S(C)(=O)=O [Compound-20, N-methyl-N-[4-[[[2-(2,5,8,11-tetraoxabicyclo[10.4.0]hexadeca-1(16),12,14-trien-14-ylamino)-7H-pyrrolo[2,3-d]pyrimidin-4-yl]amino]methyl]-3-pyridyl]methanesulfonamide]"
13.4,2500,,350,68.2,,,,,> 1000,100 to 1000,"CN([C@@H]1CCC[C@H]1Oc1nc(Nc2ccc3c(c2)OCCOCCOCCO3)nc2[nH]ncc12)S(C)(=O)=O [Compound-19, N-methyl-N-[(1R,2R)-2-[[6-(2,5,8,11-tetraoxabicyclo[10.4.0]hexadeca-1(16),12,14-trien-14-ylamino)-1H-pyrazolo[3,4-d]pyrimidin-4-yl]oxy]cyclopentyl]methanesulfonamide]"
